Data on four compounds can be found in patent US12501899B2, “Mite infestation treatment” (priority 2019, dated 2025).

Structures can show the parent of a compound that is named as a salt. Where two headings read alike, the source gives them in different places.

One series relates to bees (Apis mellifera). The protocol:
The bees were then dispatched in the boxes (10 per box).
The bees were then put to sleep for a few minutes using CO2 (flow of 3 liters for 20 seconds) in order to deposit 1 μL of compound to be tested on their thorax using a pipette. It should be noted that the bees which received romifidine hydrochloride at a concentration of 10 μg/μL received 2 μL of product. The bees were unconscious for the time the compound to be tested was deposited, that is to say around three minutes, then they woke up.
After thoracic deposition of the compound to be tested, the 10 bees from the same box were transferred to a box containing the 10 Varroa mites (cf. “Preparation of Varroa mites” above). Liquid sugar was left in each of the boxes to feed the bees during the observations. The series of boxes was then placed in an oven at […] with a humidity of 50% in order to approximate hive conditions as closely as possible.
The mortality of Varroa mites and bees was then monitored 5 minutes, 2 hours, 4 hours and 24 hours after application of the compound to be tested to the bees. Dead Varroa mites correspond to Varroa mites detached from the bees. Dead bees correspond to bees which no longer move and which are often placed on their thorax.
The following compositions were applied to the thorax of the bees: • Solvent, • Amitraz at 1 μg/μL in acetone, • Clonidine hydrochloride at 100 μg/μL, 10 μg/μL, 1 μg/μL and 0.1 μg/μL in methanol, • Detomidine hydrochloride monohydrate at 1 μg/μL in methanol, • Dexmedetomidine hydrochloride at 100 μg/μL, 10 μg/μL, 1 μg/μL and 0.1 μg/μL in methanol, • Romifidine hydrochloride at 10 μg/μL and at 5 μg/μL in methanol, • Tizanidine hydrochloride at 1 μg/μL in methanol, • Medetomidine hydrochloride at 0.1 μg/μL in ethanol, • Levomedetomidine hydrochloride at 100 μg/μL, 10 μg/μL, 1 μg/μL and 0.1 μg/μL in methanol, • Octopamine at 1 μg/μL in ethanol. Results

Series [1] deals with bees. The following applies: 100 μg/mL syrup ad libitum. The protocol:
Bees and Varroa mites were obtained and contacted as detailed in Example 1 (without the treatment step).
The bees on which the Varroa mites are attached (10 bees placed in contact with 10 Varroa mites) were fed with: • A pure syrup (Negative control), or • A syrup comprising dexmedetomidine hydrochloride at 100 μg/mL syrup.
The syrup was provided to the bees ad libitum in 1.5 mL eppendorf tubes.

The subject of another series is Rhipicephalus sanguineus. Briefly: Topical acaricidal test on brown dog ticks. The following applies: 168 h, 0.5 μl per tick, after 7 days of treatment; for mortality at 1 ppm: 1 ppm topical; for mortality at 10 ppm: 10 ppm topical; for mortality at 100 ppm: 100 ppm topical; for mortality at 1000 ppm: 1000 ppm topical. In kind it is in vivo. The protocol: Brown dog ticks, Rhipicephalus sanguineus, of 2nd stage, from a single cohort were used.
Three (3) compounds were tested, as well as a reference compound (Amitraze). For each compound tested and Amitraz, four doses (1000, 100, 10 and 1 ppm) were applied to the ticks topically. A negative control (acetone) and an untreated group were included for comparison. The experiments were carried out in triplicate.
Ten ticks were placed in a clear plastic container, measuring approximately 120 mm in diameter and 45 mm in height. The ticks were then anesthetized by direct exposure (for 10 seconds) to carbon dioxide. The treatments were then applied to the back (scutum) of each tick, using a Hamilton syringe, up to 0.5 μl of treatment per tick (1 application).
Cotton soaked in water was placed in each container to provide humidity throughout the experiment. The container was also vented throughout the experiment with a tube to introduce air into each container. The containers were maintained at a temperature of 23±3° C. Live, shocked and dead tick counts were taken daily after treatment for 7 days.
The averages in percentage of each evaluation category (healthy, knocked down and dead) were calculated, as well as the standard error. An analysis of variance (ANOVA) was performed using Minitab software, 16th edition.

The test system of a further series is Varroa destructor. Briefly: Efficiency against Varroa mites in beehives outside the brood (gel application). In kind it is in vivo. An excerpt:
(§1) 18 hives of bees were divided into 6 groups of 3 homogeneous hives as regards the strength of the colonies (number of bees) and the Varroa infestation.
The queen of each hive was caged 3 weeks before the application of the tested compounds. The application of the tested compounds was therefore carried out in a situation outside the brood, which allows the forced passage of the Varroa mites from their reproduction phase to their phoresy phase (they are therefore all present on the bees).
(§2) The tested compounds were applied in the form of a gel three weeks after the queen was caged. The activity of the compounds was studied for a period of 9 days.
Following these 9 days of treatment, a control treatment with oxalic acid was carried out (duration of treatment equal to 1 week).
Counts of Varroa mites falling on the floor were carried out at regular time intervals to quantify the number of dead Varroa mites.
The efficiency of the treatment was calculated by taking the sum of all the dead Varroa mites from D0 to D9 (tested compounds) and dividing it by the sum of all the dead Varroa mites from D0 to D16 (tested compounds+control treatment).
(§3) The following compounds were tested: • Dexmedetomidine at 55 mg/hive in hydrochloride form, • Dexmedetomidine at 110 mg/hive in hydrochloride form, • Dexmedetomidine at 220 mg/hive in hydrochloride form, • Detomidine at 38.4 mg/hive in hydrochloride form, • Detomidine at 110 mg/hive in hydrochloride form, • Detomidine at 220 mg/hive in hydrochloride form, Results

The test system of series [2] is bees. Briefly: Mortality of adult bees in treated beehives (dead bee traps). Format: in vivo. The protocol:
as §1, §2
For this purpose, dead bee traps disposed in front of the hives were used.
as §3

For the compound `Cc1cccc([C@H](C)c2c[nH]cn2)c1C` [Dexmedetomidine hydrochloride, (S)-4-[1-(2,3-dimethylphenyl)-ethyl]-1H-imidazole], the mortality for bees result with bees (Apis mellifera) (0.1 μg/μL, after 24 hours) was “less than 5%”; with bees (Apis mellifera) (10 μg/μL, after 24 hours), “less than 5%”. In addition, the “mortality / toxicity for the bees” value with bees (Apis mellifera) (1 μg/μL, after 24 hours) is reported as “less than 5%”. In the series with bees (Apis mellifera) (100 μg/μL), the toxicity for bees result is reported as “toxic for bees”. For the same compound, the “% bee mortality” value in the series on bees [1] (5 min) is listed as 0%; with bees [1] (1 h), 0%; in the series on bees [1] (2 h), 5%; in the series with bees [1] (3 h 30) it was 5%; with bees [1] (3 h 45), 5%; with bees [1] (24 h), 5%. For the same compound, the mortality (commonly the percentage killed) at 1 ppm with Rhipicephalus sanguineus amounted to 20%. In addition, in the series on Rhipicephalus sanguineus, the mortality at 10 ppm turned out to be 93.3%. In the series on Rhipicephalus sanguineus, the mortality at 100 ppm is 100%. The compound further gave a mortality at 1000 ppm with Rhipicephalus sanguineus of 100%. Further, in the series with Varroa destructor (220 mg/hive, gel, 9 days, outside the brood), the “total efficiency against Varroa mites (dead Varroa D0 to D9 / dead Varroa D0 to D16)” value worked out at 94.5%. Also, in the series on Varroa destructor (55, 110, 220 mg/hive), the “dose dependence of efficiency against Varroa mites (in words)” value was “dose effect”. For the same compound, the “bee mortality in the hive (in words)” value in the series with bees [2] (55, 110, 220 mg/hive) is on record as “no increase in bee mortality”.

`Cc1cccc(Cc2cnc[nH]2)c1C` [Detomidine hydrochloride, 4-[(2,3-dimethylphenyl)-methyl]-3H-imidazole]: in the series with Rhipicephalus sanguineus, the mortality at 1 ppm is 26.7%, the mortality at 10 ppm came out at 23.3%, the mortality at 100 ppm amounted to 50% and the mortality at 1000 ppm amounted to 100%. Moreover, the “Varroacid effect in the hive (in words)” value in the series with Varroa destructor (220 mg/hive, gel, 9 days) is listed as “allows to have a Varroacid effect”. For the same compound, the “mortality of the bees in the hive (in words)” value in the series on bees [2] (220 mg/hive) is “increase in the mortality of the bees”.

Take `Cc1cccc(C(C)c2cnc[nH]2)c1C` (racemic) [Medetomidine hydrochloride]: in the series on Rhipicephalus sanguineus, the mortality at 1 ppm worked out at 26.7%, the mortality at 10 ppm was 66.7%, the mortality at 100 ppm worked out at 93.3% and the mortality at 1000 ppm is 100%.

In the case of `Cc1ccc(/N=C/N(C)/C=N/c2ccc(C)cc2C)c(C)c1` [Amitraz], in the series on bees (Apis mellifera) (1 μg/μL, 1 μL on bee thorax, time not stated (monitored up to 24 hours)), the “bees killed / bee mortality” value amounted to 0%. In the series on Rhipicephalus sanguineus, the mortality at 1 ppm was found to be 30%, the mortality at 10 ppm came out at 46.7%, the mortality at 100 ppm came to 96.7% and the mortality at 1000 ppm was found to be 100%.
